This is an account of results in patent US4424211A, “2'Deoxy-5-(2-halogenovinyl)-uridines, pharmaceutical compositions and method of use” (Rega Instituut VZW, priority 1981, dated 1984).

A short description of one series: in vitro. As to conditions: rabbit, prk cells.
For another series, the system named is vaccinia virus. The series can be described thus: microbe, parasite or virus in culture. As to conditions: Orthopoxvirus vaccinia, 72 h. The format is cell-based.
The nature of series [1]: Antimetabolic activity: inhibition of (methyl-^3 H)TdR incorporation into DNA of PRK cells (Test 3a). The format is cell-based. As to conditions: rabbit. The protocol:
(§1) (a) In a first experiment, the incorporation of certain radiolabelled DNA precursors into DNA of the cells, and the effect of 5-(2-bromovinyl)-2'-deoxyuridine and related compounds thereon, was tested. The technique has been described by De Clercq et al in Biochemical Pharmacology, 26, 794-797 (1977) and by De Clercq et al in Molecular Pharmacology, in press, 1978, which are incorporated herein by way of reference.
(§2) The DNA precursors as used were (methyl-^3 H) (2'-deoxythymidine) (TdR), and (2-^14 C) (2'-deoxyuridine) (UdR).
(§3) Incorporation of the radiolabelled precursor was then measured as described and the ID50 was determined.

Series [2] in a line: Antimetabolic activity: inhibition of (2-^14 C)UdR incorporation into DNA of PRK cells (Test 3a). Format: cell-based. As to conditions: rabbit. The protocol: as §1, §2, §3
The subject of a further series is herpes simplex-1. The series can be described thus: Antiviral index in PRK cell cultures: antimetabolic ID50 divided by antiviral ID50 (Test 4). Format: cell-based, herpes simplex-1 virus. As to conditions: for Antiviral index: PRK cells, ID50 cell number / ID50 CPE of herpes simplex-1; for antiviral index (in words): against herpes simplex virus. The protocol: Finally, the antiviral index of 5-(2-bromovinyl)-2'-deoxyuridine and its related compounds in PRK cell cultures was determined as a result of the measurements made in the foregoing tests.
The antiviral index was calculated by dividing the "antimetabolic" ID50 by the "antiviral" ID50. The "antimetabolic" ID50 corresponded to the dose required to reduce the cell number by 50% whereas the "antiviral" ID50 corresponded to the dose required to inhibit the cytopathic effect of herpes simplex-1 by 50%.

For series [3], the system named is herpes simplex-1 (strain KOS) virus. The series can be described thus: microbe, parasite or virus in culture. The format is cell-based, herpes simplex-1 virus (strain KOS). As to conditions: for IC50: 72 h, 100 CCID50, CPE, generally 3 days, average of three experiments; for selectivity of antiviral activity (in words): herpes simplex virus.
A short description of series [4]: Antimetabolic activity: reduction of total cell number of PRK cells (Test 3b). As to conditions: rabbit.
Series [5] relates to DNA viruses such as vaccinia and herpes simplex. Conditions: state of the art; cited from earlier work.
The conditions of series [6]: state of the art; cited from earlier work.
Series [7] relates to cell culture. Briefly: Toxicity in cell culture (summary statement).
Series [8] has as its system cell culture.
Setting [9] is: HSF, read-out: ID50 Vaccinia (HSF).
[10] abbreviates: PRK, in Oryctolagus cuniculus, read-out: ID50 Vaccinia (PRK).
[11] abbreviates: human skin fibroblast (HSF) cells, read-out: ID50 Herpes simplex-1 strain KOS (HSF).
Setting [12] is: primary rabbit kidney (PRK) cells, read-out: ID50 Herpes simplex-1 strain KOS (PRK).
[13] abbreviates: PRK cells, 16 hours, read-out: ID50 (methyl-^3 H)TdR incorporation into DNA.
Where [14] appears, read: PRK cells, 16 hours, read-out: ID50 (2-^14)UdR incorpor. into DNA.

SMILES strings stand for the structures. ≈ marks a conversion by molar mass, not a printed value. Entries after “also recorded” stand apart in the source; their conditions may differ. Read-outs that look alike come from different tables or passages of the source. Where only a bound is given, the exact number is not on record here.

As a reminder, the CC50 is the concentration that lowers cell viability or growth by half. Read a low CC50 as harm at low concentration. `C=C(Cl)c1cn([C@H]2C[C@H](O)[C@@H](CO)O2)c(=O)[nH]c1=O` [5-(1-chlorovinyl)-2'-deoxyuridine] yielded a CC50 at 72 h in “in vitro” of 2 µg/mL (≈ 6.93 µM). The IC50 is 0.7 µg/mL (≈ 2.42 µM) in the series on vaccinia virus (setting [9]), 0.4 µg/mL (≈ 1.39 µM) with vaccinia virus (setting [10]), 2 µg/mL (≈ 6.93 µM) in series [3] (setting [11]) and 0.4 µg/mL (≈ 1.39 µM) in series [3] (setting [12]). Further, the IC50 at 16 h in series [1] (prk cells) is 27 µg/mL (≈ 93.5 µM); in series [2] (prk cells) it was less than 6 µg/mL. The compound further displayed an Antiviral index with herpes simplex-1 of 5.
Regarding `C#Cc1cn([C@H]2C[C@H](O)[C@@H](CO)O2)c(=O)[nH]c1=O` [2'-deoxy-5-ethynyluridine], the IC50 in the series with vaccinia virus (setting [9]) was found to be 0.1 µg/mL (≈ 0.396 µM); in the series on vaccinia virus (setting [10]), 0.2 µg/mL (≈ 0.793 µM); in series [3] (setting [11]), 0.4 µg/mL (≈ 1.59 µM); in series [3] (setting [12]) it was 0.07 µg/mL (≈ 0.278 µM). The values for the IC50 at 16 h in series [1] (setting [13]) and in series [2] (setting [14]) were 100 µg/mL (≈ 396 µM) and less than 6 µg/mL, respectively. The compound further showed a CC50 at 72 h in [4] of 0.3 µg/mL (≈ 1.19 µM). Besides, in the series with herpes simplex-1, the Antiviral index amounted to 5.
Consider `C=Cc1cn([C@H]2C[C@H](O)[C@@H](CO)O2)c(=O)[nH]c1=O` [2'-deoxy-5-vinyluridine], for which, in “in vitro”, the CC50 at 72 h was 8 µg/mL (≈ 31.5 µM). Also, the IC50 with vaccinia virus (setting [9]) was determined as 0.1 µg/mL (≈ 0.393 µM); with vaccinia virus (setting [10]), 0.4 µg/mL (≈ 1.57 µM); in series [3] (setting [11]), 0.07 µg/mL (≈ 0.275 µM); in series [3] (setting [12]), 0.04 µg/mL (≈ 0.157 µM). Moreover, the IC50 at 16 h in series [1] (prk cells) was determined as 20 µg/mL (≈ 78.7 µM); in [2] (prk cells) it was 8 µg/mL (≈ 31.5 µM). Further, in [5], the “antiviral activity/specificity of known compounds (in words)” value is “act equally well against different DNA viruses such as vaccinia and herpes simplex”. This compound also registered an Antiviral index in the series with herpes simplex-1 of 200. Moreover, the “toxicity of known compounds (in words)” value in series [6] was “cannot be neglected”.
Take `O=c1[nH]c(=O)n([C@H]2C[C@H](O)[C@@H](CO)O2)cc1/C=C/Br` [E-5-(2-bromovinyl)-2'-deoxyuridine]: the IC50 in the series with vaccinia virus (setting [9]) was determined as 0.7 µg/mL (≈ 2.1 µM); in the series with vaccinia virus (setting [10]), 7 µg/mL (≈ 21 µM); in series [3] (setting [11]), 0.007 µg/mL (≈ 0.021 µM); in [3] (setting [12]), 0.007 µg/mL (≈ 0.021 µM). The IC50 at 16 h in series [1] (setting [13]) worked out at 70 µg/mL (≈ 210 µM); in [2] (setting [14]), 35 µg/mL (≈ 105 µM). In addition, the CC50 at 72 h in [4] is more than 33 µg/mL. Besides, the Antiviral index with herpes simplex-1 is recorded as more than 5000. Further, the “antiviral index (in words)” value with herpes simplex-1 was “remarkably high antiviral index”. In series [3], the “selectivity of antiviral activity (in words)” value was “specific antiviral activity; also recorded: very selective towards herpes simplex virus”. In addition, the “toxicity (in words)” value in the series on cell culture [7] is “remarkably low”.
`O=c1[nH]c(=O)n([C@H]2C[C@H](O)[C@@H](CO)O2)cc1I` [2'-deoxy-5-iodouridine] displayed a CC50 at 72 h in the series “in vitro” of 6 µg/mL (≈ 16.9 µM). In addition, the IC50 in the series on vaccinia virus (setting [9]) stood at 0.2 µg/mL (≈ 0.565 µM); in the series with vaccinia virus (setting [10]), 0.2 µg/mL (≈ 0.565 µM); in [3] (setting [11]) it was 0.7 µg/mL (≈ 1.98 µM); in series [3] (setting [12]), 0.2 µg/mL (≈ 0.565 µM). Also, the IC50 at 16 h in series [1] (prk cells) was determined as 2.5 µg/mL (≈ 7.06 µM); in series [2] (prk cells) it was 1.2 µg/mL (≈ 3.39 µM). Besides, the “antiviral activity/specificity of known compounds (in words)” value in [5] is “act equally well against different DNA viruses such as vaccinia and herpes simplex”. Moreover, the Antiviral index in the series with herpes simplex-1 came to 30. Also, the “toxicity of known compounds (in words)” value in series [6] was “cannot be neglected”.
On to `O=c1[nH]c(=O)n([C@H]2C[C@H](O)[C@@H](CO)O2)cc1/C=C/I` [E-5-(2-iodovinyl)-2'-deoxyuridine], for which the IC50 in the series with vaccinia virus (setting [10]) came to 10 µg/mL (≈ 26.3 µM); in [3] (setting [12]) it was 0.01 µg/mL (≈ 0.0263 µM). Further, the “antiviral index (in words)” value in the series on herpes simplex-1 is listed as “high antiviral index”. In addition, the “selectivity of antiviral activity (in words)” value in series [3] is “specific antiviral activity; also recorded: very selective towards herpes simplex virus”. The “toxicity (in words)” value in the series on cell culture [8] is “remarkably low”.
